Measurements reported in US20080248008A1, “Inhibitors of Protein Kinase a Anchoring” (priority 2004, published 2008).

Target: T1, PKA-type II in lipid rafts of human peripheral blood T cells (Homo sapiens, UniProt P13861)
T1 construct: endogenous in cells; host or cells: human peripheral blood CD3+ T cells
Test: PKA type II content of lipid rafts from human T cells
Type: cell-based
Settings: n=4
Procedure: Lipid Raft Purification. Isolation of lipid rafts or glycolipid-enriched membrane microdomains was performed as described in detail elsewhere (Zhang, W. et al., 1998, Immunity 9:239-246). In brief, cells were homogenized in 1 ml ice-cold lysis buffer (50 mM Hepes, pH 7.4, 100 mM NaCl, 5 mM EDTA, […], 10 mM sodium pyrophosphate, 1 mM Na3VO4, 50 mM NaF, 1 mM PMSF, and protease inhibitors) by 10 pestle strokes in a Dounce homogenizer, loaded at the bottom of a 40-5% sucrose gradient and centrifuged at 200,000 g for 5 or 20 h. 80 μl or 0.4-ml fractions were collected from the top. The fractions were analysed by immunoblot analysis. LAT was used as a marker for lipid raft fractions.
Lipid rafts were purified from isolated human peripheral blood T cells treated with MEME3-Arg11 or SM3-Arg11 for 12 hours, followed by 10% PAGE and blotting onto a PVDF membrane and immunoblotting (FIG. 18, left panel). The PKA content was measured by densitometry of immunoblots (n=4). PKA type I in cells treated with 10 μM or 25 μM M3-Arg11 was reduced by 80% and 90%, respectively. The very weak signal observed after immunoblotting using antibodies against RIIα (data not shown) was measured by densitometry of the autoradiogram. The PKA-type II level was not reduced in lipid rafts from human peripheral blood T cells treated with MEME3-Arg11 (FIG. 18, right panel, n=4).

T1 sequence (P13861 whole entry): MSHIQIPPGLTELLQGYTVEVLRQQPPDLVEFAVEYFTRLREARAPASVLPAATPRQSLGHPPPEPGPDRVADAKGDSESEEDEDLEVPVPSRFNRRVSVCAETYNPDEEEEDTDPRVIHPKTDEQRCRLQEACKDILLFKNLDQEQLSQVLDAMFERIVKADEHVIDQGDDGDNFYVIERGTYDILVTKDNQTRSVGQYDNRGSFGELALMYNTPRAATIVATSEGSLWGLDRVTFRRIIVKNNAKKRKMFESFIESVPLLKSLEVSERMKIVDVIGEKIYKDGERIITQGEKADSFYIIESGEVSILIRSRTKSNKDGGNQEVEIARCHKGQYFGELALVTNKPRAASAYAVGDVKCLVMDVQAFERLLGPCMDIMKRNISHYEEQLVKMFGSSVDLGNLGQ

## LEQYANQLADQIIKEATERRRRRRRRRrr [MEME3-Arg11]
  PKA-type II level in lipid rafts: not reduced
